Series [1] deals with High Five cells. On the procedure: High Five cells (Thermo Fisher Scientific, Express Five™ SFM) were seeded at a seeding concentration of 1×10^6 cells/mL so as to satisfy a culture scale of 30 mL. Twenty-four hours after the initiation of culture, calcium chloride was added so as to increase a final concentration by 1, 10 and 100 mM. Here, a calcium chloride-free group was used as a control. From day 3 to 5, the cell culture solution was sampled and stained with a 0.2% trypan blue solution. The numbers of viable cells and dead cells were counted by a hemocytometer. From the total cell count and the viable-cell count, the rate of viable cells was calculated.

For series [2], the system named is High Five cells. The conditions noted are these: MOI=0.5, day 4 supernatant; for improvement of the yield of the recombinant protein: relative to absence of calcium chloride. Here is the method: A High Five cell culture solution in which cells were seeded at a seeding concentration of 1×10^6 cells/mL so as to satisfy a culture scale of 30 mL, was infected with a recombinant baculovirus prepared by integrating a gene sequence of a norovirus VP1 protein, at MOI=0.5. On Day 1 after the initiation of culture, calcium chloride was added so as to increase a final concentration by 2.5, 25, 250, 500 and 1 000 μM, and then, the cell culture was continued. On day 3, Benzonase (Merck) was added so as to be a final concentration of 50 U/mL and […] protease inhibitor tablets (Thermo Fisher Scientific) was added, and then, the cell culture was continued. On day 4, the culture supernatant was collected in the same manner as in Example 2 and subjected to Western Blotting.
For Western Blotting, after electrophoresis was carried out in the same manner as in Example 1, a transfer reaction was carried out from the gel to PVDF membrane (Merck) by a semi-dry transfer device (ATTO CORPORATION). After the transfer reaction, the PVDF membrane was soaked in a 10% skim milk-containing TBS and incubated at room temperature for two hours. After the PVDF membrane was washed three times with an appropriate amount of TBS and soaked in an anti-norovirus VP1 protein antibody (manufactured by the inventors) diluted with a 1% skim milk-containing TBST and incubated at 4° C. for from 18 to 20 hours. The PVDF membrane was washed five times with an appropriate amount of TBST, soaked in a HRP-labeled anti-mouse antibody (Jackson Immuno Research Laboratories) diluted with 1% skim milk-containing TBST, and incubated at room temperature for one hour. The PVDF membrane was washed five times with an appropriate amount of TBST and allowed to develop color with Western Lightning-Plus ECL (Perkin Elmer). The PVDF membrane was photographed by an image analyzer (Bio-Rad) and subjected to densitometric analysis.
Densitometric analysis was carried out in the same manner as in Example 1, and the relative amount of VP1 to the condition in the absence of calcium chloride was calculated.

The subject of series [3] is High Five cells. Particulars: for VP1 band intensity (relative value): MOI=0.1, day 4 supernatant, negative control = 100%. On the procedure:
High Five cells (Thermo Fisher Scientific, Express Five™ SFM) were seeded at a seeding concentration of 1×10^6 cells/mL so as to satisfy a culture scale of 30 mL.

Where two headings read alike, the source gives them in different places. A value given as a limit tells only on which side of the number the result lay.

For the compound `[Ca+2].[Cl-].[Cl-]` [calcium chloride], in series [1] (High Five cells, day 3 to 5), the “concentration of calcium chloride that is not cytotoxic” value was not above 1000 µM. Also, the viable cell rate result in series [1] (calcium chloride final concentration increased by 1 mM, added 24 h after initiation of culture, day 3 to 5, versus calcium chloride-free control) was “the same as in the control”; in series [1] (calcium chloride final concentration increased by 10 mM, day 3), “low”; in series [1] (calcium chloride final concentration increased by 100 mM, day 3) it was “low”. The “improvement of the yield of the recombinant protein” value in series [2] (calcium chloride 25 μM added on Day 1) and in series [2] (calcium chloride 250 μM added on Day 1) was “about 40%” in each case. Further, the “yield of the recombinant protein” value in series [2] (calcium chloride 500 μM added on Day 1) and in series [2] (calcium chloride 1 000 μM added on Day 1) was “seems to decrease” each time. The figures for the “VP1 band intensity (relative value)” value in series [3] (25 μM calcium chloride added 0 hr after infection), in series [3] (25 μM calcium chloride added 24 hr after infection) and in series [3] (25 μM calcium chloride added 48 hr after infection) were 102%, 111% and 102%, respectively. In addition, the “improvement of the yield of a protein of interest” value in series [3] (25 μM calcium chloride added 24 hours after the initiation of culture, relative to absence of calcium chloride) is “about 108”.

For the origin of these results see US20250051820A1 (priority 2021, published 2025).
